Test results from patent US8198317B2, “Methylenedioxy phenolic compounds and their use to treat disease” (The Ohio State University Research Foundation, priority 2008, dated 2012).

What was measured:
[1] = system: Watanabe Heritable Hyperlipidemic Rabbits (WHHL); experiment: Lucigenin chemiluminescence for NADPH derived superoxide in WHHL aortic lysates; type: in vivo, rabbit; details: vs control
Description: Oxidative stress has been implicated in atherosclerosis. Superoxide (O2^•−) derived from NADPH could potentially trigger a free radical chain reaction which could potentially catalyze atherosclerotic plaque formation. Rabbit aorta was homogenized in PBS, and the protein concentration was adjusted to 5 μg/μl. 20 ul/well of cell lysates were plated on a 96-well microplate in Kreps-Hepes Buffer (pH=7.4; initially gassed with 95% O2, and 5% CO2). The baseline O2^•− production was measured with 5 μM Lucigenin. NADPH induced O2^•− production was measured by adding NADPH (100 μM). Measurements were performed with Berthold Luminometer LB 960. Luminometer settings were 0.1 s measurement and 30s kinetics.

[2] = system: Watanabe Heritable Hyperlipidemic Rabbits (WHHL); experiment: Immunohistochemistry and staining of WHHL rabbit aorta; type: in vivo
Description: Immunohistochemical staining was performed to assess inflammatory content using the primary antibodies (1:200 concentration) and a detection system (Immunoperoxidase Secondary Detection System; Chemicon International, Temecula, Calif.), and quantified with software (NIH Image) after digitization of the images with a camera system (Zeiss Axioskop with Spot I digital camera). Antibodies against CD68 were purchased from Santa Cruz Biotechnology Incorporated (Santa Cruz, Calif.). A polyclonal anti-α-Actin antibody was obtained from Upstate Cell Signaling Solutions (Lake Placid, N.Y.). T cell receptor β antibody was obtained from Biolegend (San Diego, Calif.). To quantify the staining, the mean density of 4 negative control (no primary antibody) sections was set as the threshold, and positive area was acquired by software. Results were finally normalized by the area subtended by the external elastic lamina to the luminal interface or the intimal-medial volume. The effects of INV-75 on macrophages and smooth muscle cells in comparison to control group were evaluated by CD68 and α-actin immunohistochemistry, respectively. INV-75 decreased the number of macrophages vs. controls and summary of whole groups is represented by bar diagram in FIG. 10 (n=4-5 animals/group). *p<0.05 vs control animals using unpaired t test). […] INV-75 increased the smooth muscle content (% of total area) vs controls and the combined results were represented as a bar diagram n=5/group (n=number of animals used per group). *p<0.05 vs control animals.
Lipid deposition in aorta was identified after total 14 weeks of treatment with drug, rabbits were sacrificed and abdominal aortas were fixed in 4% paraformaldehyde. The lipid deposition in aortic wall was then visualized by oil red staining. […] (FIG. 13).

[3] = system: Watanabe Heritable Hyperlipidemic Rabbits (WHHL); experiment: Western blot of VCAM-1 and ICAM-1 in WHHL rabbit aorta; type: in vivo
Description: Samples were homogenized and solubilized in radioimmunoprecipitation assay buffer (50 mM Tris-HCl, pH 7.4, 150 mM NaCl, 1 mM EDTA, 1 mM NaF, 1 mM Na3VO4) and 1 mM phenylmethylsulfonyl fluoride, with 0.25% sodiumdeoxycholate and 1.0% Nonidet P-40) and centrifuged at 10,000 g and 4° C. for 30 min. The supernatant was collected and subjected to Western blot analysis. In brief, 40 μg of protein was separated by SDS-polyacrylamide gel electrophoresis and subsequently transferred to nitrocellulose membrane. The membrane was then incubated with: monoclonal anti-β-actin (Sigma, St. Louis, Mo.), monoclonal anti-VCAM (R&D Systems, Minneapolis, Minn.), monoclonal anti-ICAM (R&D Systems, Minneapolis, Minn.), monoclonal anti-phospho-eNOS(pS 1177) (BD Biosciences, Billerica, Mass.), rabbit anti-eNOS (Santa Cruz Biotechnology, Santa Cruz, Calif.), rabbit anti-phospho-Akt (Thr308) (Cell Signaling Technology, Danvers, Mass.), goat anti-Akt (Santa Cruz Biotechnology, Santa Cruz, Calif.), and rabbit anti-p65 (Cell Signaling Technology, Danvers, Mass.). Finally, the membranes were incubated with a horseradish peroxidase-linked secondary antibody and visualized with an enhanced chemiluminescence kit (Amersham Biosciences Inc., Piscataway, N.J.). Band density was quantified by densitometric analysis using ImageJ.

[4] = system: Watanabe Heritable Hyperlipidemic Rabbits (WHHL); experiment: Superoxide by dihydroethidium staining of WHHL aorta sections; type: in vivo, rabbit
[5] = target: T1, human full length PPARα (Homo sapiens, UniProt Q07869); experiment: PPARα promoter-reporter luciferase assay in HepG2 cells; type: cell-based
T1 construct: HepG2 cells transfected by full length human PPARα linked to luciferase reporter; expressed in transfected cells; host or cells: HepG2
T1 sequence (Q07869 1-468): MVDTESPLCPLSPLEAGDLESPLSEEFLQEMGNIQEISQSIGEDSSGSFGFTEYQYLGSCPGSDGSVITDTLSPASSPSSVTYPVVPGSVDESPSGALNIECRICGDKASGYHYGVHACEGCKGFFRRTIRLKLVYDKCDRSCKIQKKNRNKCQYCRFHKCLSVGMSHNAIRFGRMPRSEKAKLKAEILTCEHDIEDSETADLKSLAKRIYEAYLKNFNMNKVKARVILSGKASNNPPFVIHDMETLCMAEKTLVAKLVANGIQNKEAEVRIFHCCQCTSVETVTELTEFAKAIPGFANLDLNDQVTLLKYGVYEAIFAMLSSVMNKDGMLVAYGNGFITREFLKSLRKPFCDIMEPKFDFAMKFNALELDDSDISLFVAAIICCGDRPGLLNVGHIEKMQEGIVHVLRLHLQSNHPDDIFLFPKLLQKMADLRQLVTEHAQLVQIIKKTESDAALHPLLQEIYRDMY
Source text: HepG2 cells were transfected with the full length PPARα promoter reporter construct and stimulated by INV-75 ([…]). Results in C are expressed as % increase compared to WY 14643.
We used a reporter gene assay in HepG2 cells to screen for agonists of the peroxisome proliferator-activated receptors. Peroxisome proliferator-activated receptors (PPARs) and other members of the nuclear hormone receptor family are important drug targets for the treatment of metabolic diseases. PPARs play crucial roles in lipid and glucose metabolism, respectively. Therefore, screening methods that help to rapidly identify activators of these receptors should be of considerable value. INV-75 activated a classic PPARα gene, Acetyl-CoA Oxidase (ACO) in a dose dependent and time dependent fashion (FIG. 6A). The time course experiment was performed in presence of INV-75 up to 15 hours. […] We next tested the specificity of INV-75 for PPARα by performing experiments in HepG2 cells transfected with yeast GAL4-PPARα-LBD plasmid+UAS-Luciferase; GAL4-PPARδ-LBD plasmid+UAS-Luciferase and […]. The PPARα, PPARδ and PPARγ binding assays were performed using multiple concentrations of INV-75 (1 μM, 10 μM, 100 μM and 1000 μM). The level of luciferase activity corresponded to the degree of PPAR activation. The results were compared with classic PPAR agonists such as WY-14643 (PPARα agonist), Bezafibrate (PPARδ agonist) and Rosiglitazone ([…]).

luciferase activation ([5]; HepG2 transfected with PPARα promoter-reporter construct): increased | persistence of effects on PPARα activation ([5]; time course): up to 15 hours | time of onset of PPARα activation ([5]; time course): < 1 h
Structure (SMILES): CC(=O)Oc1cc2c(cc1[N+](=O)[O-])OCO2 [INV-75, 3,4-methylenedioxy-6-nitrophenyl acetate]
basal and stimulated superoxide production in aortic tissue lysates [1]: lower | collagen content (Masson's trichrome) ([2]; WHHL abdominal aorta, vs control group): reduction | lipid component (Oil Red O) ([2]; WHHL abdominal aorta, vs controls): decreased | number of macrophages (CD68) ([2]; WHHL aorta, vs controls): decreased | smooth muscle content (% of total area, α-actin) ([2]; WHHL aorta, vs controls): increased | protein expression of ICAM-1 [3]: markedly reduced | protein expression of VCAM-1 [3]: markedly reduced | basal super oxide production in the aorta (DHE) [4]: reduction
